Assay results reported in patent US20120184624A1, “Treatment of Alzheimer's Disease” (priority 2010, published 2012).

What was measured:
ACC = assay: Phosphorylation of the AMPK target ACC (Ser79) in primary cortical neurons; assay type: cell-based, mouse; conditions: 5 mM AICAR, increasing time intervals
Experimental: (§1) Primary cortical neurons were isolated from brain of wt or transgenic (Mapt^tm1(EGFP)klt Tg(MAPT)8cPdav/J; Jackson Laboratory) embryos at day 14.5. Cortices were collected in DMEM (Lonza) and cells were dissociated by incubation with Trypsin/EDTA for 6.5 min at 37° C. Cells were then diluted in neurobasal medium (Gibco-BRL) containing B27 supplement (Gibco BRL). Cells were plated at a density of 4.0×10^5 onto 0.2 mg/ml poly-D-lysin (Sigma) and 2 μg/ml Laminin (Sigma) coated 12 well plates. Neurons were incubated at 37° C. with 8% CO2. One hour after seeding a complete change of medium was performed. Later on, each 96 hours half volumes of the medium were replaced by fresh medium. After 7 days in culture neurons were treated.
Cells were incubated with the respective substances as follows: Metformin (Sigma) at final concentrations up to 2.5 mM for 1 to >24 hours, okadaic acid (Sigma) at final concentrations from 1 nM to 10 nM for 4 h, Fostricien (Sigma) at final concentration of 1 μM for 4 h and AICAR (cell signalling) at final concentration of 5 mM for 0.5-16 h. For cell treatment without insulin, medium containing B27+insulin supplement was replaced with medium containing B27-supplement without insulin 24 h before treatment. […]
Cell pellets were homogenized in Magic-Mix (48% UREA, 15 mM Tris-HCL pH 7.5, 8.7% Glycerin, 1% SDS, 0.004% Bromphenolblue, 143 mM Mercaptoethanol), sonicated and boiled for 5 min at 95° C. […] Antibodies used in this study were purchased from the following companies: Tau-5 (Biosource), anti-human PHF pSer202 (Thermo scientific), Tau pSer356 (Biosource), Tau pSer262 (Biosource), Tau pSer396 (Sigma), Actin (Sigma), ACC (cell signalling), ACC pSer79 (cell signalling), phospho-S6 ribosomal protein pSer241/244 (cell signalling), p70S6 Kinase (cell signalling), p70S6K pThr421/pSer424 (cell signalling), mTOR (cell signalling), AMPK (cell signallling, AMPK pThr172 (cell singnaling), HRP-anti-rabbit (Amersham), HRP-anti-mouse (Dianova). The resulting bands were quantified using Imagequant5.2. […]

tau = assay type: cell-based, mouse
Experimental: as §1
Cells were incubated with the respective substances as follows: Metformin (Sigma) at final concentrations up to 2.5 mM for 1 to >24 hours, okadaic acid (Sigma) at final concentrations from 1 nM to 10 nM for 4 h, Fostricien (Sigma) at final concentration of 1 μM for 4 h and AICAR (cell signalling) at final concentration of 5 mM for 0.5-16 h. For cell treatment without insulin, medium containing B27+insulin supplement was replaced with medium containing B27-supplement without insulin 24 h before treatment. 3 groups of 2 mice were treated with or without 5 mg/l metformin in the drinking water.
Cell pellets were homogenized in Magic-Mix (48% UREA, 15 mM Tris-HCL pH 7.5, 8.7% Glycerin, 1% SDS, 0.004% Bromphenolblue, 143 mM Mercaptoethanol), sonicated and boiled for 5 min at 95° C. Proteins were resolved on 8 or 10% SDS gels and blotted onto PVDF-membranes (Roche). Antibodies used in this study were purchased from the following companies: Tau-5 (Biosource), anti-human PHF pSer202 (Thermo scientific), Tau pSer356 (Biosource), Tau pSer262 (Biosource), Tau pSer396 (Sigma), Actin (Sigma), ACC (cell signalling), ACC pSer79 (cell signalling), phospho-S6 ribosomal protein pSer241/244 (cell signalling), p70S6 Kinase (cell signalling), p70S6K pThr421/pSer424 (cell signalling), mTOR (cell signalling), AMPK (cell signallling, AMPK pThr172 (cell singnaling), HRP-anti-rabbit (Amersham), HRP-anti-mouse (Dianova). The resulting bands were quantified using Imagequant5.2. Statistical analyses were performed using SigmaStat software package (v 3.0, SPSS, USA). For timecourse or dose-response studies, data were analyses by one-way ANOVA with post hoc Dunnett's or Bonferonni test to accommodate for multiple comparisons. A Student's t-test was used for two-group comparisons, as appropriate.

| Compound | ACC phosphorylation (Ser79) (ACC) | phosphorylation pattern of tau (PP2A sensitive site) (tau; 5 mM AICAR, first 16 hours of treatment) | phosphorylation of tau (Ser202) (tau; AICAR, first 8 hours of treatment) | phosphorylation at Ser202 (tau; 1 μM fostriecin alone over 4 hours) |
| --- | --- | --- | --- | --- |
| NC(=O)c1ncn([C@@H]2O[C@H](CO)[C@@H](O)[C@H]2O)c1N [AICAR] | significantly increased | did not find a significant effect | did not see an effect |  |
| C[C@@](O)(/C=C/[C@H]1CC=CC(=O)O1)[C@@H](C[C@@H](O)\C=C/C=C\C=C\CO)OP(=O)(O)O [fostriecin] |  |  |  | increased |
